In ChEMBL document CHEMBL5442741, “ASAP - In vitro kinase profile” (2024):
Several values for one entry are separate records, joined by “and”; a condition that tells them apart may be missing. Equal entries are not always repeated.

How the values were obtained:
[1] = target: Cyclin-dependent kinase 2/cyclin A (Homo sapiens) (UniProt P24941+P20248+P78396); experiment: Enzymatic radiometric [Km ATP] KinaseProfiler LeadHunter assay, kinase: CDK2/cyclinA, catalogue number: 14-448KP The assay has been performed by Eurofins Discovery.; assay type: protein-complex assay; details: ATP concentration 45.0 uM, Test compound concentration 10.0 uM
[2] = target: T1, Serine/threonine-protein kinase Chk1 (Homo sapiens) (UniProt O14757); experiment: Enzymatic radiometric [Km ATP] KinaseProfiler LeadHunter assay, kinase: CHK1, catalogue number: 14-346KP The assay has been performed by Eurofins Discovery.; details: ATP concentration 90.0 uM, Test compound concentration 10.0 uM
T1 sequence (whole entry): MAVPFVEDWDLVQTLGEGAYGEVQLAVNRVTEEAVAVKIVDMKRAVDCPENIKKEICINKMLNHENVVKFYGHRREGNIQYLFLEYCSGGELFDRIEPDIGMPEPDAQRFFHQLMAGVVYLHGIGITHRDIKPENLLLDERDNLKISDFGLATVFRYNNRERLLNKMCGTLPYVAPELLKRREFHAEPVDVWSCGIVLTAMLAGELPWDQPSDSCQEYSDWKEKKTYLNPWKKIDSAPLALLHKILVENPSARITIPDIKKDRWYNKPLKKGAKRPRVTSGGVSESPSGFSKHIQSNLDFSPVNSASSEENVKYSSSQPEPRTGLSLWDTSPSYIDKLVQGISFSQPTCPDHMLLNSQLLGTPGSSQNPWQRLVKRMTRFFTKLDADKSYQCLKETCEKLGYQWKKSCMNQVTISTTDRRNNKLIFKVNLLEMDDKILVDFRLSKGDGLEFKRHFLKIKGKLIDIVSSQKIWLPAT

[3] = target: MAP kinase-activated protein kinase 2 (Homo sapiens) (UniProt P49137); experiment: Enzymatic radiometric [Km ATP] KinaseProfiler LeadHunter assay, kinase: MAPKAP-K2, catalogue number: 14-337KP The assay has been performed by Eurofins Discovery.; details: ATP concentration 90.0 uM, Test compound concentration 10.0 uM
Sequence of MAP kinase-activated protein kinase 2 (Homo sapiens) (P49137 whole entry, looked up): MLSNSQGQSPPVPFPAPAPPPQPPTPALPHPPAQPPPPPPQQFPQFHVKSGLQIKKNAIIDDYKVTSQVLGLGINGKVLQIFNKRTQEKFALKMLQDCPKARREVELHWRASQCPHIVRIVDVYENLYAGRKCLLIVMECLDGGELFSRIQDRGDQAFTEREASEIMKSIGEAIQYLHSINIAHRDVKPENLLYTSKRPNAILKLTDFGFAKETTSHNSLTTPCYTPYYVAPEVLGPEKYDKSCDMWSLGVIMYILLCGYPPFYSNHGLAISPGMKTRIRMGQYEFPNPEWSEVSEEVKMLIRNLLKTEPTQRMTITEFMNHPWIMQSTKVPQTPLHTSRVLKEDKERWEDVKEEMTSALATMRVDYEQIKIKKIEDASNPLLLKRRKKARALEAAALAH

[4] = target: Platelet-derived growth factor receptor beta (Homo sapiens) (UniProt P09619); experiment: Enzymatic radiometric [Km ATP] KinaseProfiler LeadHunter assay, kinase: PDGFR-beta, catalogue number: 14-463KP The assay has been performed by Eurofins Discovery.; details: ATP concentration 200.0 uM, Test compound concentration 10.0 uM
Sequence of Platelet-derived growth factor receptor beta (Homo sapiens) (P09619 whole entry): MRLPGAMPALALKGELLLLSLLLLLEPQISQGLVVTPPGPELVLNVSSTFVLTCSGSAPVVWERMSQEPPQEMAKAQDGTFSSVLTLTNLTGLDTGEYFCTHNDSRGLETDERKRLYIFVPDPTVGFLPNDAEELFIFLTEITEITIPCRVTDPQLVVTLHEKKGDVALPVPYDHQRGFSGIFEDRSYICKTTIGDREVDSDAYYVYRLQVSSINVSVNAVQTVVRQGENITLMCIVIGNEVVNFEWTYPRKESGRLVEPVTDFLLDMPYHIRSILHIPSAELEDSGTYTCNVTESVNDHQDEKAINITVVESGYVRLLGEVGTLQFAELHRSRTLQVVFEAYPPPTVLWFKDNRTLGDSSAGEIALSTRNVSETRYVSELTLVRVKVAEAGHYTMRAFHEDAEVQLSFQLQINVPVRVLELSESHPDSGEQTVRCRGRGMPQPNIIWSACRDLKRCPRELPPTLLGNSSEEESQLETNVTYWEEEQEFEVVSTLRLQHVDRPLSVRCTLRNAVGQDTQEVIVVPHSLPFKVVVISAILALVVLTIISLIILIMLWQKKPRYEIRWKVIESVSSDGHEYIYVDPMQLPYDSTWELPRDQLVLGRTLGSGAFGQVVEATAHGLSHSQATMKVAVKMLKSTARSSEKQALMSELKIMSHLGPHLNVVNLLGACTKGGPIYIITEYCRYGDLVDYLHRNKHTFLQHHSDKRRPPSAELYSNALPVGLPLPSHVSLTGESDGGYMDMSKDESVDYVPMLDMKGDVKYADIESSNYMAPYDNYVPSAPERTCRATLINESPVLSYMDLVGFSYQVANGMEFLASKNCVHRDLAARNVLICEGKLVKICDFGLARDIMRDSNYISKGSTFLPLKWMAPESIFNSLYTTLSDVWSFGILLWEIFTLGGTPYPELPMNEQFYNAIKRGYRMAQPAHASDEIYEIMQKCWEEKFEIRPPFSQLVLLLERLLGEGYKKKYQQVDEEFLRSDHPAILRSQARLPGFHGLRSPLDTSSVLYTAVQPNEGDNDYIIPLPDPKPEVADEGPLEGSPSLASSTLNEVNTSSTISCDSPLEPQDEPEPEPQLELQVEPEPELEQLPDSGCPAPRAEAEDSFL

[5] = target: SRSF protein kinase 1 (Homo sapiens) (UniProt Q96SB4); experiment: Enzymatic radiometric [Km ATP] KinaseProfiler LeadHunter assay, kinase: SRPK1, catalogue number: 14-564KP The assay has been performed by Eurofins Discovery.; details: ATP concentration 10.0 uM, Test compound concentration 10.0 uM
Sequence of SRSF protein kinase 1 (Homo sapiens) (Q96SB4 whole entry): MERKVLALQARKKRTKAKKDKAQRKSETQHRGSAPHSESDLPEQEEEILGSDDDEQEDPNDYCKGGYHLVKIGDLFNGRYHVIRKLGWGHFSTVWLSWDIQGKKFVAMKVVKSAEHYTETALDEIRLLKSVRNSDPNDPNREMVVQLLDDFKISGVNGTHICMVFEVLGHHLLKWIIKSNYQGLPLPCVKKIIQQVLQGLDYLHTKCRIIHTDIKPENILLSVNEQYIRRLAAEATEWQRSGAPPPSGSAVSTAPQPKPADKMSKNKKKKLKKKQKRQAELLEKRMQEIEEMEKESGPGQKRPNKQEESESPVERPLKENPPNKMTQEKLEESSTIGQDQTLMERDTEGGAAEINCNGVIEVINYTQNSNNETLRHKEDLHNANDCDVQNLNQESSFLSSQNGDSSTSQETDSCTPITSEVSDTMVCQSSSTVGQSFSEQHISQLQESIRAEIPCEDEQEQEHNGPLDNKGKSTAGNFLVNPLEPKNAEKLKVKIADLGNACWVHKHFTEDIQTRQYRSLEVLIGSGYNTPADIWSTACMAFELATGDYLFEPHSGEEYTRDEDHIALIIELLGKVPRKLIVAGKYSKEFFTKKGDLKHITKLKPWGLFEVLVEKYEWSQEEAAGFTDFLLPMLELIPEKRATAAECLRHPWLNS

[6] = target: Mitogen-activated protein kinase 14 (Homo sapiens) (UniProt Q16539); experiment: Enzymatic radiometric [Km ATP] KinaseProfiler LeadHunter assay, kinase: SAPK2a, catalogue number: 14-251KP The assay has been performed by Eurofins Discovery.; details: ATP concentration 90.0 uM, Test compound concentration 10.0 uM
Sequence of Mitogen-activated protein kinase 14 (Homo sapiens) (Q16539 whole entry): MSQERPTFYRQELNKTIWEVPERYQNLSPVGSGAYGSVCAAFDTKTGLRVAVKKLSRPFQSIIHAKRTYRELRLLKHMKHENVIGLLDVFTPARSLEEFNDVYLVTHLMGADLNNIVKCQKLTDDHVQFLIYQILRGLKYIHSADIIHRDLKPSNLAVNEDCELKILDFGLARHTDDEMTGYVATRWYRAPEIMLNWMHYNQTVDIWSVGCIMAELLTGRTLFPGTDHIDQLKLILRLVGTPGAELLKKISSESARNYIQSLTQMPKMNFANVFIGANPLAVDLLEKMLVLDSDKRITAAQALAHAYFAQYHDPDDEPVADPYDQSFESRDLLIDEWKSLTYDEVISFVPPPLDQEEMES

[7] = target: Dual specificity mitogen-activated protein kinase kinase 1 (Homo sapiens) (UniProt Q02750); experiment: Enzymatic radiometric [Km ATP] KinaseProfiler LeadHunter assay, kinase: MEK1, catalogue number: 14-429KP The assay has been performed by Eurofins Discovery.; details: ATP concentration 10.0 uM, Test compound concentration 10.0 uM
Sequence of Dual specificity mitogen-activated protein kinase kinase 1 (Homo sapiens) (Q02750 whole entry): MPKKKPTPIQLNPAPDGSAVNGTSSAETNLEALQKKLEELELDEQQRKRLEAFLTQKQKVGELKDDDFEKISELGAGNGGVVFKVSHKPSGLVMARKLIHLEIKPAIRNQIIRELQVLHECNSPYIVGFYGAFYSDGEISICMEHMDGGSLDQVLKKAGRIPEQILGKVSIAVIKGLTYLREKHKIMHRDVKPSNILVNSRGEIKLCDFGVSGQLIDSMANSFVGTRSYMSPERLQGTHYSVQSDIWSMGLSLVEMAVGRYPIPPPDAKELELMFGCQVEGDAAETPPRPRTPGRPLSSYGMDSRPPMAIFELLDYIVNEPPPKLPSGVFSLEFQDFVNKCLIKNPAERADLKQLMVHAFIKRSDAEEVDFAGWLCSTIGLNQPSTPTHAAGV

[8] = target: PI3K p110 beta/p85 alpha (Homo sapiens) (UniProt P27986+P42338); experiment: Enzymatic radiometric [Km ATP] KinaseProfiler LeadHunter assay, kinase: PI3 Kinase (p110-beta/p85-alpha), catalogue number: 14-603KP The assay has been performed by Eurofins Discovery.; assay type: protein-complex assay; details: ATP concentration 200.0 uM, Test compound concentration 10.0 uM
[9] = target: RAC-alpha serine/threonine-protein kinase (Homo sapiens) (UniProt P31749); experiment: Enzymatic radiometric [Km ATP] KinaseProfiler LeadHunter assay, kinase: PKB-alpha, catalogue number: 14-276KP The assay has been performed by Eurofins Discovery.; details: ATP concentration 155.0 uM, Test compound concentration 10.0 uM
Sequence of RAC-alpha serine/threonine-protein kinase (Homo sapiens) (P31749 whole entry): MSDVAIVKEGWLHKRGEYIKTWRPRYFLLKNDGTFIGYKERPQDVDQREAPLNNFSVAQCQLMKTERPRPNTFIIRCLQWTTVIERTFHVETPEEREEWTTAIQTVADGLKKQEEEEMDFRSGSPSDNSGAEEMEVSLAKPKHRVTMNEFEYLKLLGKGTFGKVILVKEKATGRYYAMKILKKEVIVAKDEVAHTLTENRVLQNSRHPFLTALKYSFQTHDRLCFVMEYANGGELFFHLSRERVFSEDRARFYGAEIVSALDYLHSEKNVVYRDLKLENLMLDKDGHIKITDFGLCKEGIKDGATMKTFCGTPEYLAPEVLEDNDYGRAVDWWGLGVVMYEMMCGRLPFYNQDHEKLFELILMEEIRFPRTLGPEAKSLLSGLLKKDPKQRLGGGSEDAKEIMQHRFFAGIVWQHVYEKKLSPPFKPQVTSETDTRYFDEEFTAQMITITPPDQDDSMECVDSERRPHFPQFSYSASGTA

[10] = target: Ribosomal protein S6 kinase alpha-4 (Homo sapiens) (UniProt O75676); experiment: Enzymatic radiometric [Km ATP] KinaseProfiler LeadHunter assay, kinase: MSK2, catalogue number: 14-616KP The assay has been performed by Eurofins Discovery.; details: ATP concentration 45.0 uM, Test compound concentration 10.0 uM
Sequence of Ribosomal protein S6 kinase alpha-4 (Homo sapiens) (O75676 whole entry, looked up): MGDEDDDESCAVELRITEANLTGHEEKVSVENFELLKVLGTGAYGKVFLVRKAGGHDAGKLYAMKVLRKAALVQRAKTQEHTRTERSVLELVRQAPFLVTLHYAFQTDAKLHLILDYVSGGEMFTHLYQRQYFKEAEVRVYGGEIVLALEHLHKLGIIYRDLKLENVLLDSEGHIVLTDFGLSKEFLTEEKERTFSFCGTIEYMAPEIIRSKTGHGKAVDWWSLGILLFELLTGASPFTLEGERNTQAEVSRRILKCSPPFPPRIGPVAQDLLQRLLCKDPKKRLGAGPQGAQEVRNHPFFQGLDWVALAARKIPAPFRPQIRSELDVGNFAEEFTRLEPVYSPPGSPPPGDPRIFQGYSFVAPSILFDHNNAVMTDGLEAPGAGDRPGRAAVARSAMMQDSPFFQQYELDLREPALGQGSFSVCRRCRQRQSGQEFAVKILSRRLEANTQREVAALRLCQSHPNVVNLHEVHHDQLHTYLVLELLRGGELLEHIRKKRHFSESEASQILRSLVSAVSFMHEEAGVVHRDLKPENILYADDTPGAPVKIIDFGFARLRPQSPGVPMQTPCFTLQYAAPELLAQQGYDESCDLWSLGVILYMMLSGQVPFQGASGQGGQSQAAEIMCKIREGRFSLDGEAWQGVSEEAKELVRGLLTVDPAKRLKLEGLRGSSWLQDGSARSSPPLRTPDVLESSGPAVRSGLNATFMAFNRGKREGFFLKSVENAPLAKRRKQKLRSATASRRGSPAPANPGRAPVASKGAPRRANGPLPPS

[11] = target: T2, Ephrin type-B receptor 4 (Homo sapiens) (UniProt P54760); experiment: Enzymatic radiometric [Km ATP] KinaseProfiler LeadHunter assay, kinase: EphB4, catalogue number: 14-554KP The assay has been performed by Eurofins Discovery.; details: ATP concentration 10.0 uM, Test compound concentration 10.0 uM
T2 sequence (whole entry): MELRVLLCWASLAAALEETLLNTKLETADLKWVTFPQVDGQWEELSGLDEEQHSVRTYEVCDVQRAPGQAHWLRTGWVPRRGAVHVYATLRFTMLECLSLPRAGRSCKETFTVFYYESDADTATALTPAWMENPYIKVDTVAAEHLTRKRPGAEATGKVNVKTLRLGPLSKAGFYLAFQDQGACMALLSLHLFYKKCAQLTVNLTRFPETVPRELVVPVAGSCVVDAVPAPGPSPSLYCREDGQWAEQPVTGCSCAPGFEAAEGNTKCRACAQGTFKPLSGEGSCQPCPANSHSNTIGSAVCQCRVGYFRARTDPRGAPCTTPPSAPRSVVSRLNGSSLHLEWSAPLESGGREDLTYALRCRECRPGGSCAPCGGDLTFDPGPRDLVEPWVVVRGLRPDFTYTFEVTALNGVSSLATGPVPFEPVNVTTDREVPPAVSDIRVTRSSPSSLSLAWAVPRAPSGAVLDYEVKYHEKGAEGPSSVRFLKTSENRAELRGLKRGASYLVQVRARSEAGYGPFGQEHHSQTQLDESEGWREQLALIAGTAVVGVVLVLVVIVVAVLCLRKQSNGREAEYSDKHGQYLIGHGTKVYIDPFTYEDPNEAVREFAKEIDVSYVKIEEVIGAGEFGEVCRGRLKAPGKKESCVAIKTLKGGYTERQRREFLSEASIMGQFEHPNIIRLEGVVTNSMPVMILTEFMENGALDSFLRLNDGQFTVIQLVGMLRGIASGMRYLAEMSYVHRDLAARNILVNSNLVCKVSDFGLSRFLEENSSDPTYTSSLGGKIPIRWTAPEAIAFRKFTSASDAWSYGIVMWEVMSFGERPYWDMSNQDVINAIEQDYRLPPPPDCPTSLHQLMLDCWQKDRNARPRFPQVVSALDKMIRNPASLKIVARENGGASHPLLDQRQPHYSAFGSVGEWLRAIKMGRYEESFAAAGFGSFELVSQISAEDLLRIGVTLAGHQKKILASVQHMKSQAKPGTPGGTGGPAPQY

[12] = target: PI3-kinase p110-delta/p85-alpha (Homo sapiens) (UniProt P27986+O00329); experiment: Enzymatic radiometric [Km ATP] KinaseProfiler LeadHunter assay, kinase: PI3 Kinase (p110-delta/p85-alpha), catalogue number: 14-604KP The assay has been performed by Eurofins Discovery.; assay type: protein-complex assay; details: ATP concentration 200.0 uM, Test compound concentration 10.0 uM
[13] = target: RAF proto-oncogene serine/threonine-protein kinase (Homo sapiens) (UniProt P04049); experiment: Enzymatic radiometric [Km ATP] KinaseProfiler LeadHunter assay, kinase: c-RAF, catalogue number: 14-352KP The assay has been performed by Eurofins Discovery.; details: ATP concentration 120.0 uM, Test compound concentration 10.0 uM
Sequence of RAF proto-oncogene serine/threonine-protein kinase (Homo sapiens) (P04049 whole entry): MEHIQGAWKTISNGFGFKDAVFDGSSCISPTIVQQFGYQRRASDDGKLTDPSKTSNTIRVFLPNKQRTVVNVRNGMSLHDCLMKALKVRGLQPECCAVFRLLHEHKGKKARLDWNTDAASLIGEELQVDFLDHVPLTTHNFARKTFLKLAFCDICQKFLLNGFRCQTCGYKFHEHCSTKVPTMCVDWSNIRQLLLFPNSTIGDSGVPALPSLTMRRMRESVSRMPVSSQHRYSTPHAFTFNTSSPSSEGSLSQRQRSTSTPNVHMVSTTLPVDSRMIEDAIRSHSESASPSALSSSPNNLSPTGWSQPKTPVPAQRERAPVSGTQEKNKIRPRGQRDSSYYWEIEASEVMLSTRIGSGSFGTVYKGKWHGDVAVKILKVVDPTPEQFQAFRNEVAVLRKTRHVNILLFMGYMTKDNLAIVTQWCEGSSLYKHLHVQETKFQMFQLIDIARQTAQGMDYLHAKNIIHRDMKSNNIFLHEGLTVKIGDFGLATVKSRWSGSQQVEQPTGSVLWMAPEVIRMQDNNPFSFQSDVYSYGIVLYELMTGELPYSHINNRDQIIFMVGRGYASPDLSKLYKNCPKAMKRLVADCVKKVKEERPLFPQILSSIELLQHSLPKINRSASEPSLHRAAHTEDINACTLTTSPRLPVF

SMILES | Activity [1] | Activity [2] | Activity [3] | Activity [4] | Activity [5] | Activity [6] | Activity [7] | Activity [8] | Activity [9] | Activity [10] | Activity [11] | Activity [12] | Activity [13]
COc1ccc([C@H](Cc2nnn[nH]2)NC(=O)c2ncnc3[nH]ccc23)cc1 | 113% | 110% | 102% | 103% | 103% | 103% | 100% | 97% | 97% | 103% | 106% | 97% | 103%
COc1ccc([C@@H](Cc2nnn[nH]2)NC(=O)c2ncnc3[nH]ccc23)cc1 | 97% | 95% | 92% | 102% | 102% | 100% | 92% | 102% | 94% | 92% | 88% | 99% | 90%
CC(C)[C@H](Nc1ncnc2[nH]ccc12)c1ccc2c(c1)S(=O)(=O)CCC2 | 102% | 110% | 106% | 89% | 100% | 107% | 94% | 100% | 95% | 92% | 86% | 99% | 107%
CC(C)[C@@H](Nc1ncnc2[nH]c(-c3cnn(C)c3C#N)cc12)c1ccc2c(n1)OCCO2 | 95% and 104% | 108% and 120% | 98% and 114% | 108% and 93% | 92% and 104% | 103% and 101% | 99% and 103% | 92% and 84% | 95% and 94% | 103% and 122% | 75% and 91% | 55% and 61% | 81% and 90%
C[C@H](C(=O)O)[C@@H](NC(=O)c1ncnc2[nH]ccc12)c1ccc(Br)cc1 | 102% | 99% | 98% | 110% | 97% | 103% | 89% | 97% | 95% | 90% | 105% | 97% | 108%
CC(C)[C@@H](Nc1ncnc2[nH]c(C(=O)N[C@@H]3CCN(C)C3)cc12)c1ccc2c(c1)S(=O)(=O)CCC2 | 117% | 118% | 108% | 83% | 108% | 97% | 107% | 99% | 88% | 93% | 86% | 99% | 105%
